# US12545708B2, “Peptide for treatment of corona virus infection disease COVID-19 and use thereof” (DAEGU GYEONGBUK INSTITUTE OF SCIENCE AND TECHNOLOGY, priority 2020, dated 2026)
# How the values were obtained:
# RBD = RBD (Severe acute respiratory syndrome coronavirus 2, UniProt P0DTC2); test: biochemical; type: binding, SARS-CoV2
smiles,measurement,setting,value
CC[C@H](C)[C@H](NC(=O)[C@H](CC(N)=O)NC(=O)[C@@H](NC(=O)[C@H](CC(N)=O)NC(=O)[C@H](Cc1ccc(O)cc1)NC(=O)[C@@H](NC(=O)[C@H](CC(N)=O)NC(=O)[C@H](CC(=O)O)NC(=O)[C@H](C)NC(=O)[C@H](CC(C)C)NC(=O)[C@H](CCC(N)=O)NC(=O)[C@H](CO)NC(=O)[C@H](CCCCN)NC(=O)[C@@H](N)CCSC)C(C)C)[C@@H](C)O)C(=O)N[C@H](C(=O)N[C@@H](CCCCN)C(=O)N[C@@H](CCC(=O)O)C(=O)N[C@@H](CC(N)=O)C(=O)N[C@H](C(=O)N[C@@H](CCC(N)=O)C(=O)N[C@@H](CC(N)=O)C(=O)N[C@@H](CCSC)C(=O)N[C@@H](CC(N)=O)C(=O)N[C@@H](CCC(=O)O)C(=O)N[C@@H](CCC(=O)O)C(=O)N[C@@H](CCC(N)=O)C(=O)N[C@@H](C)C(=O)N[C@@H](CCCCN)C(=O)N[C@H](C(=O)N[C@@H](Cc1ccccc1)C(=O)N[C@@H](CC(C)C)C(=O)N[C@@H](CC(=O)O)C(=O)N[C@@H](CCCCN)C(=O)N[C@@H](Cc1ccccc1)C(=O)N[C@@H](CC(N)=O)C(=O)N[C@@H](Cc1c[nH]cn1)C(=O)N[C@@H](CCC(=O)O)C(=O)N[C@@H](C)C(=O)N[C@@H](CCC(=O)O)C(=O)N[C@@H](CC(=O)O)C(=O)N[C@@H](CC(C)C)C(=O)N[C@@H](Cc1ccccc1)C(=O)N[C@@H](Cc1ccc(O)cc1)C(=O)N[C@@H](CCC(N)=O)C(=O)N[C@@H](CO)C(=O)N[C@@H](CO)C(=O)NCC(=O)N[C@@H](CC(C)C)C(=O)NCC(=O)N[C@@H](CCCCN)C(=O)NCC(=O)N[C@@H](CC(=O)O)C(=O)N[C@@H](Cc1ccccc1)C(=O)N[C@@H](CCCNC(=N)N)C(=O)O)[C@@H](C)O)C(C)C)[C@@H](C)O [PEP9],Kd,RBD,0.0345 µM
same,change in cell viability,HEK293T cell line,no significant change
same,change in cell viability,HepG2 cell line,no significant change
same,change in cell viability,MRC-5 cell line,no significant change
same,change in cell viability,HMC-3 cell line,no significant change
same,decrease in the cell viability,HMC-3 cell line,about 10%
